The test system of one assay is S. aureus strain COL. In words: Bacterial growth assay in MM with Neu5Ac, S. aureus. Type of assay: cell-based, Staphylococcus aureus. Particulars: MM + Neu5Ac 3.2 mM, compound 0.5 mM, P < 0.001. As to the method: (§1) To investigate the efficacy of compounds 3e and 3f in inhibiting the uptake of Neu5Ac, bacterial growth assays were performed on a uropathogenic P. mirabilis strain HI4320 and a clinical HA-MRSA isolate S. aureus strain COL. The goal was to verify that compounds 3e and 3f alter bacterial growth when grown on Neu5Ac as an additional carbon source. Growth alteration would indicate Neu5Ac uptake impairment, thus validating our approach.
(§2) We first addressed whether these bacteria were able to catabolize the inhibitors and potentially use them as a carbon source for growth. Each strain was grown in carbon-limited defined minimal media (MM), without any carbon source other than sodium citrate for P. mirabilis and casamino acids for S. aureus, and supplemented with 3e and 3f. […] With these promising results, bacterial growth assays were performed in MM supplemented with Neu5Ac at a concentration of 3.2 mM and with 0.5 mM of compounds 3e and 3f (Figure 6a,b). The lag phase duration was determined as the time for the initial population density to increase twofold (see the horizontal dashed lines in Figure 6a,b). […] In the case of P. mirabilis, compound 3e indicated a delay in growth (3 h, P = 0.06), while no effect was recorded for compound 3f. […]

The next assay has as its system S. aureus COL. The experiment in a line: Growth in carbon-limited MM with inhibitor only, S. aureus. Format: cell-based, Staphylococcus aureus. Particulars: MM with casamino acids, compound 0.5 mM. As to the method: We first addressed whether these bacteria were able to catabolize the inhibitors and potentially use them as a carbon source for growth. Each strain was grown in carbon-limited defined minimal media (MM), without any carbon source other than sodium citrate for P. mirabilis and casamino acids for S. aureus, and supplemented with 3e and 3f. […] With these promising results, bacterial growth assays were performed in MM supplemented with Neu5Ac at a concentration of 3.2 mM and with 0.5 mM of compounds 3e and 3f (Figure 6a,b). The lag phase duration was determined as the time for the initial population density to increase twofold (see the horizontal dashed lines in Figure 6a,b). The effects were significant in the case of S. aureus, where a delayed growth of 4.4 and 9.4 h (P < 0.001) for compounds 3e and 3f, respectively, was observed. In the case of P. mirabilis, compound 3e indicated a delay in growth (3 h, P = 0.06), while no effect was recorded for compound 3f.
Figure S4. S. aureus COL (A) and P. mirabilis HI4320 (B) grown in defined carbon-limited minimal media (dotted line), with the addition of compound 3e (0.5 mM, solid line) or compound 3f (0.5 mM, dashed line). Average values of two biological replicates (n=2) each including two technical replicates are presented.
(1 picture or pasted object on this page, not shown here)

Assay [1] deals with P. mirabilis strain HI4320. In words: Bacterial growth assay in MM with Neu5Ac, P. mirabilis. Format: cell-based, Proteus mirabilis. Particulars: P. mirabilis HI4320, MM + Neu5Ac 3.2 mM, compound 0.5 mM. As to the method: as §1, §2

Structures are written as SMILES.

As for `CC(=O)NC1C(OCc2cc(F)cc(F)c2)CC(O)(C(=O)O)OC1C(O)C(O)CO` (stereo not drawn) [Compound 3e], the “delayed growth (lag phase)” value in the assay with S. aureus strain COL worked out at 4.4 h. In addition, the “ability to catabolize compound (growth vs MM only)” value in the assay with S. aureus COL is given as “no ability to catabolize”. The “delay in growth (lag phase)” value in assay [1] was found to be 3 h.
For the compound `CC(=O)NC1C(OCc2cc(Br)cc(Br)c2)CC(O)(C(=O)O)OC1C(O)C(O)CO` (stereo not drawn) [Compound 3f], in the assay on S. aureus strain COL, the “delayed growth (lag phase)” value turned out to be 9.4 h. Besides, in the assay with S. aureus COL, the “ability to catabolize compound (growth vs MM only)” value is “no ability to catabolize”. Besides, the “delay in growth (lag phase)” value in assay [1] is on record as “no effect”.

The record behind these values is article PMC9295122, “Sialic Acid Derivatives Inhibit SiaT Transporters and Delay Bacterial Growth” (ACS Chemical Biology, 2022).
